Each block holds one compound with its values, some of them ahead of it.
Test: Solubility in organic solvents
Assay type: physicochemical
Conditions: at 50°C; for solubility (% by weight) in organic solvents: Hyzole-296: Hyzole-296 (diallylethane compound); for solubility (% by weight) in organic solvents: KMC-113: KMC-113 (alkyl naphthalene compound)
Source text: The solubility of the fluoran compounds (B), (C) and (D) of the present invention in organic solvents was compared with that of the above-mentioned conventional fluoran compounds(A-1), (A-2) and (A-3), and the results are shown in Table 1.
Note: KMC-113 is an alkyl naphthalene compound manufactured by Kureha Chemical Industry Co. Ltd., and Hyzole-296 is a diallylethane compound manufactured by Nippon Petrochemical Co. Ltd. Both are organic solvents commonly used for pressure sensitive record sheets.

SMILES: CCN(CC)c1ccc2c(c1)Oc1ccc(NCc3ccc(Cl)cc3)cc1C21OC(=O)c2ccccc21 (stereo not drawn) [(A-3), 2-(4-chlorobenzylamino)-6-diethylamino fluoran]
- solubility (% by weight) in organic solvents: Hyzole-296: 3.10% by weight
- solubility (% by weight) in organic solvents: KMC-113: 1.90% by weight

SMILES: CCN(CC)c1ccc2c(c1)Oc1ccc(NCc3ccccc3)cc1C21OC(=O)c2ccccc21 (stereo not drawn) [Compound (A-1), 2-benzylamino-6-diethylamino fluoran]
- solubility (% by weight) in organic solvents: Hyzole-296: 1.40% by weight
- solubility (% by weight) in organic solvents: KMC-113: 0.44% by weight

SMILES: CCN(CC)c1ccc2c(c1)Oc1ccc(NCc3ccccc3Cl)cc1C21OC(=O)c2ccccc21 (stereo not drawn) [Compound (A-2), 2-(2-chlorobenzylamino)-6-diethylamino fluoran]
- solubility (% by weight) in organic solvents: Hyzole-296: 1.80% by weight
- solubility (% by weight) in organic solvents: KMC-113: 1.20% by weight

The remaining lines, values ahead:

- solubility (% by weight) in organic solvents: Hyzole-296: 4.80% by weight
- solubility (% by weight) in organic solvents: KMC-113: 3.30% by weight
SMILES: CCCCN(CCCC)c1ccc2c(c1)Oc1ccc(NCc3ccccc3Cl)cc1C21OC(=O)c2ccccc21 (stereo not drawn) [Compound (B), 2-(2-chlorobenzylamino)-6-di-n-butylamino-fluoran]

- solubility (% by weight) in organic solvents: Hyzole-296: 6.30% by weight
- solubility (% by weight) in organic solvents: KMC-113: 4.20% by weight
SMILES: CCCCN(CCCC)c1ccc2c(c1)Oc1ccc(NCc3cccc(Cl)c3)cc1C21OC(=O)c2ccccc21 (stereo not drawn) [Compound (C), 2-(3-chlorobenzylamino)-6-di-n-butylamino-fluoran]

- solubility (% by weight) in organic solvents: Hyzole-296: 7.20% by weight
- solubility (% by weight) in organic solvents: KMC-113: 3.80% by weight
SMILES: CCCCN(CCCC)c1ccc2c(c1)Oc1ccc(NCc3ccc(Cl)cc3)cc1C21OC(=O)c2ccccc21 (stereo not drawn) [Compound (D), 2-(4-chlorobenzylamino)-6-di-n-butylamino-fluoran]
